Test results reported in US20060188913A1, “Methods and products for enhancing immune responses using imidazoquinoline compounds” (University of Iowa Research Foundation, priority 2001, published 2006).

Assays:
[1] = system: human PBMC; experiment: IFN-gamma secretion by human PBMC (ELISA); type: cell-based; conditions: 48 hours, compared to R-848, not shown
Protocol: This experiment investigated the induction of the Th1 cytokine IFN-gamma as well as the Th1-related chemokine IP-10 (IFN-gamma inducible protein). Unfractionated human PBMC from three donors were incubated for 48 hours in the presence of varying concentrations of R-848 (0.01-1.0 μg/ml), varying concentrations of CpG ODN 2006 (0.2-3.0 μg/ml), varying concentrations of negative control ODN 5177 (0.2-3.0 μg/ml), SEB (50 ng/ml), or media alone, and then the concentrations of IP-10 and IFN-gamma in the supernatant were measured by ELISA.

[2] = biological target: T1, hTLR9 (Homo sapiens, UniProt Q9NR96, H530R/Q688R); experiment: Reconstitution of hTLR9 signaling in 293 fibroblasts (NF-kappa B luciferase, IL-8 ELISA); type: cell-based; conditions: 2006 2 μM, LPS 100 ng/ml, FIG. 10
T1 construct: 293-TLR9-Luc cells contain a genomic copy of the hTLR9 open reading frame and the NF-kappa B-luciferase cassette; expressed in transfected cells; host or cells: 293-TLR9-Luc (stably transfected human embryo kidney 293 cells)
T1 sequence (Q9NR96 26-1032 H530R/Q688R): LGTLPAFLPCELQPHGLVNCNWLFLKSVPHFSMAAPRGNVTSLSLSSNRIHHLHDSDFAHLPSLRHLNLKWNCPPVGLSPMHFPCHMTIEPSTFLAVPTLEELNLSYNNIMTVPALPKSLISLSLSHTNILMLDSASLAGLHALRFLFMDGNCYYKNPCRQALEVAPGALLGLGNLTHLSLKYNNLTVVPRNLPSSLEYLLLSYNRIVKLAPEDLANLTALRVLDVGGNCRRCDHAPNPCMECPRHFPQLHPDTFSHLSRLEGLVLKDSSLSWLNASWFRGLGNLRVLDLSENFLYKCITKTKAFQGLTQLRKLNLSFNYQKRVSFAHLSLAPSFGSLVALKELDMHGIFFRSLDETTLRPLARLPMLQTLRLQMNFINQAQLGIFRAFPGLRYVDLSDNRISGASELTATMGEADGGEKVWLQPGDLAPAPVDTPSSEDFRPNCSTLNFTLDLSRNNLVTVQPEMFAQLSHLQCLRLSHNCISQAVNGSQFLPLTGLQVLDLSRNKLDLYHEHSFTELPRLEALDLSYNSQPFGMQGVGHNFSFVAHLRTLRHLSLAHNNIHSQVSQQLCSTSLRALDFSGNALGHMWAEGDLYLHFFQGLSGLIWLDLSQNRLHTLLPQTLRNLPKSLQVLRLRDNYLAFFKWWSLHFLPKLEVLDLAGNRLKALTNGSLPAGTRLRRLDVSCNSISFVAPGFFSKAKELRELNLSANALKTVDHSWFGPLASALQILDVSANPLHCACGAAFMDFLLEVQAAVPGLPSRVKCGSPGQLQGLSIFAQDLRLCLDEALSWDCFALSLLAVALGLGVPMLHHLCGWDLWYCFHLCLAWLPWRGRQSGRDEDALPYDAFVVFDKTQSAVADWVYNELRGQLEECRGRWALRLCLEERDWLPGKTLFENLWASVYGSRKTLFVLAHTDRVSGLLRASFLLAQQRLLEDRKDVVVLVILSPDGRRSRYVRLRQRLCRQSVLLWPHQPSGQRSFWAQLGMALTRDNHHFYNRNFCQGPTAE
Excerpt: Methods for cloning murine and human TLR9 have been described in pending U.S. patent application Ser. No. 09/954,987, filed Sep. 17, 2001, and published PCT application PCT/US01/29229, the contents of which are incorporated by reference. Human TLR9 cDNA (SEQ ID NO:6, GenBank Accession No. AF245704) and murine TLR9 cDNA (SEQ ID NO:8, GenBank Accession No. AF348140) in pT-Adv vector (from Clontech) were individually cloned into the expression vector pcDNA3.1 (−) from Invitrogen using the EcoRi site. Utilizing a “gain of function” assay it was possible to reconstitute human TLR9 (hTLR9) and murine TLR9 (mTLR9) signaling in CpG-DNA non-responsive human 293 fibroblasts (ATCC, CRL-1573). The expression vectors mentioned above were transfected into 293 fibroblast cells using the calcium phosphate method. […]
Since NF-kappa B activation is central to the IL-1/TLR signal transduction pathway (Medzhitov R et al. (1998) Mol Cell 2:253-258 (1998); Muzio M et al. (1998) J Exp Med 187:2097-101), cells were transfected with hTLR9 or co-transfected with hTLR9 and an NF-kappa B-driven luciferase reporter construct. […] After stimulus with CpG-ODN (2006, 2 μM, […], SEQ ID NO:1), GpC-ODN (2006-GC, 2 μM, […], SEQ ID NO:10), LPS (100 ng/ml) or media, NF-kappa B activation by luciferase readout (8 h, FIG. 10A) or IL-8 production by ELISA (48 h, FIG. 10B) were monitored. […]

Substance: CpG ODN 2006
- IFN-gamma induction [1]: The same result was obtained
- response of cells expressing hTLR9 (NF-kappa B luciferase 8 h, IL-8 48 h) [2]: responded to CpG-DNA
